Laboratory results taken from patent US20040044177A1, “Peptide compounds having improved binding affinity to somatostatin receptors” (priority 2002, published 2004).
pIC50: −log10 of the molar value. Bridge positions count the residues as written; N and C are the ends. Square brackets hold non-standard residues; d marks the D form. Peptide text beside a SMILES is read from it. * marks the point of attachment. DOTA = O=C(O)CN1CCN(CC(=O)O)CCN(CC(=O)*)CCN(CC(=O)O)CC1; 1Nal = N[C@@H](Cc1cccc2ccccc12)C(=O)O; Bta = N[C@@H](Cc1csc2ccccc12)C(=O)O; Thr(ol) = C[C@@H](O)[C@H](N)CO

Legend:
[1] = molecular target: T1, somatostatin human receptor subtype (hsst) 2 (Homo sapiens, UniProt P30874); test: In vitro binding affinity, transfected cell lines, hsst 2; details: compared with compound 7 (Y-DOTA-TOC)
T1 construct: expressed in transfected cells
T1 sequence (P30874 whole entry): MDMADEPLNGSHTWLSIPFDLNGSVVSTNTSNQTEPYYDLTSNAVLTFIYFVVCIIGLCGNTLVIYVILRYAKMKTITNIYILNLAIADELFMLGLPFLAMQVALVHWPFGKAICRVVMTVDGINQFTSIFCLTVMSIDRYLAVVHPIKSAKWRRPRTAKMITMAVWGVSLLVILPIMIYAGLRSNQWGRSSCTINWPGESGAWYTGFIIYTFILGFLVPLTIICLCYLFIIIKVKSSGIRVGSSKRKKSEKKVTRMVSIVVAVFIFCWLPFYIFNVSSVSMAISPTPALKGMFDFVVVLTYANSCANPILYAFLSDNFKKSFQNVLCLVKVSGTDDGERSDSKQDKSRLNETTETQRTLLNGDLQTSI

[2] = molecular target: T2, human somatostatin receptor subtype hsst3 (Homo sapiens, UniProt P32745); test: In vitro binding affinity, transfected cell lines, hsst 3; set-up: expressed in transfected cells; details: compared with cpd. 6 (Y-DOTA-LAN)
T2 sequence (P32745 whole entry): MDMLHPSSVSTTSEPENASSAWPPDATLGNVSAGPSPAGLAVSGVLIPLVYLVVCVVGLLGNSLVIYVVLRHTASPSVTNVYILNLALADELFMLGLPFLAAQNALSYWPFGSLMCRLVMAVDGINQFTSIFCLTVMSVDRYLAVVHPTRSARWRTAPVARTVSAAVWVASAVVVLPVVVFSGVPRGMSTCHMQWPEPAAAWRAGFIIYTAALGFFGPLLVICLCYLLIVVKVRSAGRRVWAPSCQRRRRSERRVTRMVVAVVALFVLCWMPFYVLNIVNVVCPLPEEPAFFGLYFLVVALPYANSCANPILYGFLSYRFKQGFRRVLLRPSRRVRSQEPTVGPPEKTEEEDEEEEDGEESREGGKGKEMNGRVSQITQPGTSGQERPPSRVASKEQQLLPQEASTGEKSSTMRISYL

[3] = molecular target: human somatostatin receptor subtype hsst5 (Homo sapiens, UniProt P35346); test: In vitro binding affinity of peptide analogs (Table III), hsst5; details: DOTA complexed with stable Y or In
human somatostatin receptor subtype hsst5, sequence (P35346 whole entry): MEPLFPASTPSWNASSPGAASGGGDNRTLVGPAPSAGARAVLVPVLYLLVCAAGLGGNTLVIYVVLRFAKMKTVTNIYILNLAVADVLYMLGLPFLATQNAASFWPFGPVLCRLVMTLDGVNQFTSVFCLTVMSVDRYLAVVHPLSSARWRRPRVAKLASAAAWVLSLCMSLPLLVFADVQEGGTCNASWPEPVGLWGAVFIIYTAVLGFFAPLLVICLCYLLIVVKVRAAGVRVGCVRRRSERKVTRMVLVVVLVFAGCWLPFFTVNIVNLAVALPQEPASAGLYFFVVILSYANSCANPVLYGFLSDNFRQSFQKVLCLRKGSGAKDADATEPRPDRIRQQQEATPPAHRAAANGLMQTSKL
Description: (§1) IC50 values were determined as described by Reubi et al. (Eur J Nuc Med 28:836-846, 2001).

[4] = molecular target: T2, human somatostatin receptor subtype hsst3; test: In vitro binding affinity of peptide analogs (Table III), hsst3; details: DOTA complexed with stable Y or In
Description: Table III, presents the binding affinity of the new compounds to human somatostatin receptor subtypes as compared to the compound, Y-DOTA-TATE, described by Srinivasan et al. (U.S. Pat. No. 5,830,431).
as §1

Row | binding affinity to sst 2 relative to compound 7 [1] | affinity to sst 3 relative to cpd. 6 [2] | pIC50 [3] | pIC50 [4] | Structure (SMILES)
1 | approx. three times better | approx. five times better |  |  | C[C@@H](O)[C@@H]1NC(=O)[C@H](CCCCN)NC(=O)[C@@H](Cc2c[nH]c3ccccc23)NC(=O)[C@H](Cc2cccc3ccccc23)NC(=O)[C@@H](NC(=O)[C@@H](Cc2ccccc2)NC(=O)CN2CCN(CC(=O)O)CCN(CC(=O)O)CCN(CC(=O)O)CC2)CSSC[C@@H](C(=O)N[C@H](CO)[C@@H](C)O)NC1=O [cpd. 8, ^90Y-labelled DOTA-(D)Phe-cyclo[Cys-(D) 1-Nal-(D)Trp-Lys-Thr-Cys]-Thr-ol, metal not drawn] ({DOTA}-[dF]C[1Nal][dW]KTC[Thr(ol)]; disulfide 2-7)
2 |  |  | 7.19 | 6.77 | C[C@@H](O)[C@H](NC(=O)[C@@H]1CSSC[C@H](NC(=O)[C@@H](Cc2ccccc2)NC(=O)CN2CCN(CC(=O)O)CCN(CC(=O)O)CCN(CC(=O)O)CC2)C(=O)N[C@@H](Cc2ccc(O)c(I)c2)C(=O)N[C@H](Cc2c[nH]c3ccccc23)C(=O)N[C@@H](CCCCN)C(=O)N[C@@H]([C@@H](C)O)C(=O)N1)C(=O)O [compound 2]
3 | approx. three times better |  |  |  | C[C@@H](O)[C@@H]1NC(=O)[C@H](CCCCN)NC(=O)[C@@H](Cc2c[nH]c3ccccc23)NC(=O)[C@H](Cc2csc3ccccc23)NC(=O)[C@@H](NC(=O)[C@@H](Cc2ccccc2)NC(=O)CN2CCN(CC(=O)O)CCN(CC(=O)O)CCN(CC(=O)O)CC2)CSSC[C@@H](C(=O)N[C@H](CO)[C@@H](C)O)NC1=O [cpd. 9, ^90Y-labelled DOTA-(D)Phe-cyclo[Cys-(D)3-benzothienylalanyl-(D)Trp-Lys-Thr-Cys]-Thr-ol, metal not drawn] ({DOTA}-[dF]C[Bta][dW]KTC[Thr(ol)]; disulfide 2-7)
